{"source": "patent US8809386B2", "about": "“Use of dynamin ring stabilizers” (Children's Medical Research Institute, priority 2009, dated 2014)", "system": "purified full length dynamin I", "experiment": "Electron microscopy of dynamin ring formation in the absence of a template", "assay_type": "biochemical", "settings": "5.4 μM, 200 nM dynamin, no template, FIG. 9C", "description": "Dynamin was then examined by electron microscopy. […] The rings are bona fide dynamin rings (B).\nNext, the effect of a ring stabilizer Bis-T-23 on the formation of dynamin rings in the absence of a template like PS liposomes was examined. At high concentrations in vitro, dynamin is well known to self-assemble into rings that are detectable by EM (Hinshaw and Schmid, 1995). Such self assembly requires high dynamin concentrations typically in the order of 500-1000 nM and is not observed at lower dynamin concentrations. Specifically, the effect of Bis-T-23 (5.4 μM) on 200 nM dynamin in the absence of template was tested, which is well below the concentration threshold for self-assembly. […] High power images confirmed that the electron dense structures are bona fide dynamin rings (FIG. 9B). […] The findings with basal dynamin are completely unexpected for a dynamin inhibitor and are indicative of the ring stabilizer activity.", "data": [{"smiles": "N#CC(=Cc1cc(O)c(O)c(O)c1)C(=O)NCCCNC(=O)C(C#N)=Cc1cc(O)c(O)c(O)c1", "note": "[Bis-T-23, 2-cyano-N-{3-[2-cyano-3-(3,4,5-trihydroxyphenyl)-acryloylamino]-propyl}-3-(3,4,5-trihydroxyphenyl)-acrylamide]", "values": [{"measurement": "increase in bona fide dynamin rings", "result": 6, "unit": "fold"}]}]}
